Assay results as given in ChEMBL document CHEMBL1136832, “Synthesis of 7-chloro-2,3-dihydro-2-[1-(pyridinyl)alkyl]-pyridazino[4,5-b]quinoline-1,4,10(5H)-triones as NMDA glycine-site antagonists” (Bioorg Med Chem Lett, 2003).
pKi: −log10 of the molar value.

Columns and labels:
[1] = molecular target: Glutamate NMDA receptor; type: cell membranes, Membrane
Description: Affinity for glycine site of NMDA receptor on rat brain membranes by displacement of [3H]- MDL 105,519.

[2] = tested on: Caco-2; conditions: Homo sapiens
Description: Cellular permeability in Caco-2 cells.

[3] = physchem; conditions: buffer, pH 7.4
[4] = Oral bioavailability in rat; conditions: in vivo

Row | pKi [1] | solubility [3] | bioavailability [4] | SMILES | Permeability [2]
1 | 6.00 | 490 µg/mL |  | CS(=O)(=O)O.O=c1[nH]n(C(c2ccccn2)C2CC2)c(=O)c2c(O)c3ccc(Cl)cc3nc12 (stereo not drawn) | 9.8e-06
2 |  | > 200 µg/mL | 17% | CCC(c1ccncc1)n1[nH]c(=O)c2[nH]c3cc(Cl)ccc3c(=O)c2c1=O.CS(=O)(=O)O (stereo not drawn) | 1.1e-05
3 | 5.62 |  |  | CC(c1cc[n+]([O-])cc1)n1[nH]c(=O)c2nc3cc(Cl)ccc3c(O)c2c1=O (stereo not drawn) | 
4 | < 5.00 | 130 µg/mL |  | CS(=O)(=O)O.O=c1[nH]n(C(c2ccccc2)c2ccncc2)c(=O)c2c(O)c3ccc(Cl)cc3nc12 (stereo not drawn) | 4e-06

Continued, molecule first:

Row | SMILES | pKi [1] | solubility [3] | bioavailability [4] | Permeability [2]
5 | O=c1[nH]n(Cc2cc[n+]([O-])cc2)c(=O)c2c(O)c3ccc(Cl)cc3nc12 | 6.36 | > 160 µg/mL |  | 5e-07
6 | CCC(c1ccccn1)n1[nH]c(=O)c2nc3cc(Cl)ccc3c(O)c2c1=O (stereo not drawn) | 5.63 |  |  | 
7 | CC(c1ccncc1)n1[nH]c(=O)c2[nH]c3cc(Cl)ccc3c(=O)c2c1=O.CS(=O)(=O)O (stereo not drawn) |  |  | 30% | 5.8e-06
8 | CCCC(c1ccncc1)n1[nH]c(=O)c2nc3cc(Cl)ccc3c(O)c2c1=O.CS(=O)(=O)O (stereo not drawn) | 5.36 | > 220 µg/mL |  | 1.6e-05
9 | CS(=O)(=O)O.O=c1[nH]n(C(c2ccccn2)C2CCCC2)c(=O)c2c(O)c3ccc(Cl)cc3nc12 (stereo not drawn) | < 5.00 | > 170 µg/mL |  | 5.6e-06
10 | CCCCC(c1ccccn1)n1[nH]c(=O)c2nc3cc(Cl)ccc3c(O)c2c1=O.CS(=O)(=O)O (stereo not drawn) | < 5.00 | > 220 µg/mL |  | 1.6e-05
11 | CC(C)CC(c1ccncc1)n1[nH]c(=O)c2nc3cc(Cl)ccc3c(O)c2c1=O.CS(=O)(=O)O (stereo not drawn) | 5.28 | > 170 µg/mL |  | 1.1e-05
12 | CC(C)CC(c1ccccn1)n1[nH]c(=O)c2nc3cc(Cl)ccc3c(O)c2c1=O.CS(=O)(=O)O (stereo not drawn) | < 5.00 | > 130 µg/mL |  | 9.1e-06
13 | O=c1[nH]n(Cc2ccncc2)c(=O)c2c(=O)c3ccc(Cl)cc3[nH]c12 |  |  | 5% | 2e-07
